Laboratory results reported in ChEMBL document CHEMBL1152560, “Substituted 2-arylbenzothiazoles as kinase inhibitors: hit-to-lead optimization” (Bioorg Med Chem, 2009).

Assays:
[1] = target: Tyrosine-protein kinase Fer (Homo sapiens) (UniProt P16591); assay: Residual activity of FER at 10 uM by microplate scintillation counting
[2] = target: BDNF/NT-3 growth factors receptor (Homo sapiens) (UniProt Q16620); assay: Residual activity of TRK-B at 10 uM by microplate scintillation counting
[3] = target: RAC-gamma serine/threonine-protein kinase (Homo sapiens) (UniProt Q9Y243); assay: Residual activity of AKT3 at 10 uM by microplate scintillation counting
[4] = target: Glycogen synthase kinase-3 beta (Homo sapiens) (UniProt P49841); assay: Residual activity of GSK3-beta at 0.1 uM by microplate scintillation counting
[5] = test system: Epidermal growth factor receptor (Homo sapiens), P00533 [L858R]; assay: Residual activity of EGFR L858R mutant at 0.1 uM by microplate scintillation counting
[6] = target: Mitogen-activated protein kinase kinase kinase kinase 4 (Homo sapiens) (UniProt O95819); assay: Residual activity of MAP4K4 at 10 uM by microplate scintillation counting
[7] = target: Receptor-type tyrosine-protein kinase FLT3 (Homo sapiens) (UniProt P36888); assay: Residual activity of wild type FLT3 at 0.1 uM by microplate scintillation counting
[8] = target: T1, Myotonin-protein kinase (Homo sapiens) (UniProt Q09013); assay: Residual activity of DMPK at 10 uM by microplate scintillation counting
T1 sequence (whole entry): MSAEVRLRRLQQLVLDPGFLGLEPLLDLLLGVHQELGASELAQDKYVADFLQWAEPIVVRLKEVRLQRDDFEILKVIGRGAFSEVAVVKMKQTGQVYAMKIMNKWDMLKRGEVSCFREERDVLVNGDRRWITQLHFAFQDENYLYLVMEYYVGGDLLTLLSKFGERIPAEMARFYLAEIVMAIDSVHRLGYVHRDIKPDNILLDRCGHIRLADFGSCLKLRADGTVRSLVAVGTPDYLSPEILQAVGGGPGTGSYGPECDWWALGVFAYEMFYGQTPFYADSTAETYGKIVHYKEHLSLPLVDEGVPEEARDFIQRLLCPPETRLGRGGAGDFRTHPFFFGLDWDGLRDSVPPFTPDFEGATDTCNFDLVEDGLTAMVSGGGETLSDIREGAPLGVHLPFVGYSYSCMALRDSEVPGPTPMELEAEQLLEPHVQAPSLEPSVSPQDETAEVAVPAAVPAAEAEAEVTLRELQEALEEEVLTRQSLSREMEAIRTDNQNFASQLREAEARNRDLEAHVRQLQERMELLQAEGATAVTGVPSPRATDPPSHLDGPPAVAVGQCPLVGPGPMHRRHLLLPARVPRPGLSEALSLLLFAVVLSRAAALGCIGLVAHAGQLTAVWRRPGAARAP

[9] = target: T2, Ephrin type-B receptor 2 (Homo sapiens) (UniProt P29323); assay: Residual activity of EPHB2 at 0.1 uM by microplate scintillation counting
T2 sequence (whole entry): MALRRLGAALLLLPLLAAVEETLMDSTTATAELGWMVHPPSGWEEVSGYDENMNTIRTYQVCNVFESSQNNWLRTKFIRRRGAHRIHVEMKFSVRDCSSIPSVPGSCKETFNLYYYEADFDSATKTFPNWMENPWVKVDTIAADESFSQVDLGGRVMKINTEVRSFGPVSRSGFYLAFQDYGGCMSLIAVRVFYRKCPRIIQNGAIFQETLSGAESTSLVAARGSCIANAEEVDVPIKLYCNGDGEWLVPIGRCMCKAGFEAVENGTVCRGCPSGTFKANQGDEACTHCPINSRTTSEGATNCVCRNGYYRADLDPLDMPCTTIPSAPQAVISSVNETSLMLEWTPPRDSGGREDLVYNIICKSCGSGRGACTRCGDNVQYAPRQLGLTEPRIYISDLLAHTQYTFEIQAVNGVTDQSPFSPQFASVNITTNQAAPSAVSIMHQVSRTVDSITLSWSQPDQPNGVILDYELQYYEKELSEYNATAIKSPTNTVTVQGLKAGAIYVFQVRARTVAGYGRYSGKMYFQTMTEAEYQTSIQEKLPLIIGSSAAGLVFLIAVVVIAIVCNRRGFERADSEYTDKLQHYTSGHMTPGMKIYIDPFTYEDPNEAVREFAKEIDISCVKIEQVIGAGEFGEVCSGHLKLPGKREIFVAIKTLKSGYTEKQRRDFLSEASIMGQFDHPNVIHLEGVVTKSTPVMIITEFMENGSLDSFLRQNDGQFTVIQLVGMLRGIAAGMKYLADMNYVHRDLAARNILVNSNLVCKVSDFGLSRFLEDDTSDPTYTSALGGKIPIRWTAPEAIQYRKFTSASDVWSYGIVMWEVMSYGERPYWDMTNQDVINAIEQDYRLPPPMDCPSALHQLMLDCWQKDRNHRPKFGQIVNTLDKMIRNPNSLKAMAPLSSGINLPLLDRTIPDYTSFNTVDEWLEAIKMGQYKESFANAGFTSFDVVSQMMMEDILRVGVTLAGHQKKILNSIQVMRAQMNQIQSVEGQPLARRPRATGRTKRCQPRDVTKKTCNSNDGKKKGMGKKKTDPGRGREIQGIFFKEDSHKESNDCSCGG

Sequence of Tyrosine-protein kinase Fer (Homo sapiens) (P16591 whole entry, looked up): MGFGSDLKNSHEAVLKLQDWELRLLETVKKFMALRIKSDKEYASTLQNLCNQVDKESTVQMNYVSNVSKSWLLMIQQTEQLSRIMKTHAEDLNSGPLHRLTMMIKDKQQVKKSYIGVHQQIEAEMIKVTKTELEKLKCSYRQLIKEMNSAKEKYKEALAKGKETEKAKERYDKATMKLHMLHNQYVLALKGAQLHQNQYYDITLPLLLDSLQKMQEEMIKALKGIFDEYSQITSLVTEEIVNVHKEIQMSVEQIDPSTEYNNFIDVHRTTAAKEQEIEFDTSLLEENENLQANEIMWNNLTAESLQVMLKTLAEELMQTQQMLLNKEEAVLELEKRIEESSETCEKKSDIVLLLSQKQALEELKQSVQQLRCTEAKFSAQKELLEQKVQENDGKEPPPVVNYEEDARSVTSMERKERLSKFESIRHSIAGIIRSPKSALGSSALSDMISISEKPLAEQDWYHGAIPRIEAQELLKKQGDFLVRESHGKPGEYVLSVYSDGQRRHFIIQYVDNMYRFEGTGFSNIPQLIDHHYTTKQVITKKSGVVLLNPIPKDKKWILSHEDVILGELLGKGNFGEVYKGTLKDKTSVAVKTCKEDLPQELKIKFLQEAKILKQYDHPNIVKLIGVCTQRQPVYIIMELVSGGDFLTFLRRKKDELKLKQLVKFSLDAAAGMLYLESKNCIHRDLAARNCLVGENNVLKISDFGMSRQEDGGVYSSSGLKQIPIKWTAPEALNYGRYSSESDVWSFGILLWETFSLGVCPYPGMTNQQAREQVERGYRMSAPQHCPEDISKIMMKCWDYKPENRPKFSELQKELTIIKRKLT
Sequence of Receptor-type tyrosine-protein kinase FLT3 (Homo sapiens) (P36888 whole entry): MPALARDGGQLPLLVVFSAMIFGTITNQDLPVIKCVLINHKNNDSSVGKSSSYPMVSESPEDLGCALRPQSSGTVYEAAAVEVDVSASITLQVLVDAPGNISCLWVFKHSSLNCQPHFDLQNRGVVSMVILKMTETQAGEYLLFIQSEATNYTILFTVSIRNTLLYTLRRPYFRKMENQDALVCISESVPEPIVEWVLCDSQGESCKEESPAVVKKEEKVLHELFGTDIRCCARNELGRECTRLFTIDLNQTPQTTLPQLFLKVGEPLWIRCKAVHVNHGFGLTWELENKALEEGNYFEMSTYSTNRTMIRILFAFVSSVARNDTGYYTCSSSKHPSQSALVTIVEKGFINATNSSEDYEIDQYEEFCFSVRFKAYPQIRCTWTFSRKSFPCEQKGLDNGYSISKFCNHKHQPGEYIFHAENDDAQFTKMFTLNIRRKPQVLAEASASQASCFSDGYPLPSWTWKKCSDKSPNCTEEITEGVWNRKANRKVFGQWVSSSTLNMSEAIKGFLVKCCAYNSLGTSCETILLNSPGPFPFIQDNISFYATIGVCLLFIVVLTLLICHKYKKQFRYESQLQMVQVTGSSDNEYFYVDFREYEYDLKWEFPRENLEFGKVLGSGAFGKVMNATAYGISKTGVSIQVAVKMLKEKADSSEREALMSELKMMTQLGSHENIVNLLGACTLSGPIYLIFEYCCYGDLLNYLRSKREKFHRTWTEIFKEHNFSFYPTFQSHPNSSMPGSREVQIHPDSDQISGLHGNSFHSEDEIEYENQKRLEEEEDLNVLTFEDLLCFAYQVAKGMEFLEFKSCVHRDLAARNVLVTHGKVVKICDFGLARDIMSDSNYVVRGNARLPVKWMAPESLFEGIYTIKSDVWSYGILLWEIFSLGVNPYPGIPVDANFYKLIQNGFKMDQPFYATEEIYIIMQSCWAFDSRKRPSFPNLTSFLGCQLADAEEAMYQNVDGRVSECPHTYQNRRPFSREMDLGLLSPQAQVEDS
Sequence of RAC-gamma serine/threonine-protein kinase (Homo sapiens) (Q9Y243 whole entry): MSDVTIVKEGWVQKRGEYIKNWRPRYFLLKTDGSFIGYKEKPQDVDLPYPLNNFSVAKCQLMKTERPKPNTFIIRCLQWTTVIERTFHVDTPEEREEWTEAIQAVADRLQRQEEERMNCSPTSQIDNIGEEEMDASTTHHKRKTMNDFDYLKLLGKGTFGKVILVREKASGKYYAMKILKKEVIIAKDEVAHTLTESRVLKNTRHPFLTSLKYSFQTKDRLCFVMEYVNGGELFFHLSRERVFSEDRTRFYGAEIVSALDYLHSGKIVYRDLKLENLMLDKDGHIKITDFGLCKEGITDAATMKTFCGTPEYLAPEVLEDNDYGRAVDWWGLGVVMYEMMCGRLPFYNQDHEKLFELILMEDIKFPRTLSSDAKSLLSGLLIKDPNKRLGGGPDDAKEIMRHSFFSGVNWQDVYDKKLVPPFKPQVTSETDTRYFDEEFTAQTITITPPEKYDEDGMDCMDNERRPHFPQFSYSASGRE
Sequence of BDNF/NT-3 growth factors receptor (Homo sapiens) (Q16620 32-822 limits assumed): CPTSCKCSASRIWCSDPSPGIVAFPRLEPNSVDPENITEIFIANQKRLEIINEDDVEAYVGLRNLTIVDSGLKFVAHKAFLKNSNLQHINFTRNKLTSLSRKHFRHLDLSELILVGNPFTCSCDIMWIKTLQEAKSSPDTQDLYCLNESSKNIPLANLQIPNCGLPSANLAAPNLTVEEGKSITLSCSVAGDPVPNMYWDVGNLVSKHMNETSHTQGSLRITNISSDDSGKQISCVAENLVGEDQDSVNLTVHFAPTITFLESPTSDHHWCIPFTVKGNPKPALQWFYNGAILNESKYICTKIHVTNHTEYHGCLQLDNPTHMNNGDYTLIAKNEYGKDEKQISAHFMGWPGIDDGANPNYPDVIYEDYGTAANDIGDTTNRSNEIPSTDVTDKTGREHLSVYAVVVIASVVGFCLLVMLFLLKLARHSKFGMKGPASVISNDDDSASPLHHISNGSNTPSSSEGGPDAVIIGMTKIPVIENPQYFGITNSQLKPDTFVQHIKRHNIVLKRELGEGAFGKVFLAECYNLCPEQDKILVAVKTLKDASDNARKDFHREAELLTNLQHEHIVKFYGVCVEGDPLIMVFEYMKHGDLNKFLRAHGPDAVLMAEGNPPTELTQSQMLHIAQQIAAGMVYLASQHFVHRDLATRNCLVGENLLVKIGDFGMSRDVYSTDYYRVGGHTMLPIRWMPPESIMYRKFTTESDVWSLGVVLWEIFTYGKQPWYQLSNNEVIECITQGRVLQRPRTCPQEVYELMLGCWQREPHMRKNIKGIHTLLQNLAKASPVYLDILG
Sequence of Mitogen-activated protein kinase kinase kinase kinase 4 (Homo sapiens) (O95819 2-1239 limits assumed): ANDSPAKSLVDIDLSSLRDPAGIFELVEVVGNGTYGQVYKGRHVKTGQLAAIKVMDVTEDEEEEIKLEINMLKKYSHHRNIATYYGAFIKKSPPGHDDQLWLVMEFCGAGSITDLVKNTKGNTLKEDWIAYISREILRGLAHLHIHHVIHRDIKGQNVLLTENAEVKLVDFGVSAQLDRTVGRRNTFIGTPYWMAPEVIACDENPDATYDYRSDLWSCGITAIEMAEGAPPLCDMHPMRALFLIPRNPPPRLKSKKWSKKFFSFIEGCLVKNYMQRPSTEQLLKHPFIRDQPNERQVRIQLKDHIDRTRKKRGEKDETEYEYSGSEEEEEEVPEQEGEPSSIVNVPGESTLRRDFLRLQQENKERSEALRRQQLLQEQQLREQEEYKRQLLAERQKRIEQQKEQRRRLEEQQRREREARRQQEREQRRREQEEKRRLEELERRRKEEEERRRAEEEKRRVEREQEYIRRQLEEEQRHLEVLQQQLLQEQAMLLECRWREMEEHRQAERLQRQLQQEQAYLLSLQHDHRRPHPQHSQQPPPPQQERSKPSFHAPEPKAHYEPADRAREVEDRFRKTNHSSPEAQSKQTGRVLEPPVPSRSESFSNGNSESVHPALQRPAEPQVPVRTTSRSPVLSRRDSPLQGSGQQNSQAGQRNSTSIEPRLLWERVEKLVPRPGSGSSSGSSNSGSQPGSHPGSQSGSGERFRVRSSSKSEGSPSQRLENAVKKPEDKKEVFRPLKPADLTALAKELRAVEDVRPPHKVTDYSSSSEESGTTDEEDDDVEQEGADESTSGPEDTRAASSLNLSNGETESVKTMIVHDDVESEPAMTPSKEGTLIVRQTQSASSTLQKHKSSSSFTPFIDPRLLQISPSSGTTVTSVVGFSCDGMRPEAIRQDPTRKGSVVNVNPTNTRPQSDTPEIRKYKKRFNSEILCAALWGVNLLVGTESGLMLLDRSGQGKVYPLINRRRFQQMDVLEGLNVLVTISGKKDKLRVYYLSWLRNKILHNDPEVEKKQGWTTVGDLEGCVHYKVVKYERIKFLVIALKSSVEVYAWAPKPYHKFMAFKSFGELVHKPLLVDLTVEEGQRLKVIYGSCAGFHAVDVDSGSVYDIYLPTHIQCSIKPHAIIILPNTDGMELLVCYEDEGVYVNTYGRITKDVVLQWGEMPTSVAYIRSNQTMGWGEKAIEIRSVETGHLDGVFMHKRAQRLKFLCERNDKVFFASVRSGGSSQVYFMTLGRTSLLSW
Sequence of Glycogen synthase kinase-3 beta (Homo sapiens) (P49841 whole entry, looked up): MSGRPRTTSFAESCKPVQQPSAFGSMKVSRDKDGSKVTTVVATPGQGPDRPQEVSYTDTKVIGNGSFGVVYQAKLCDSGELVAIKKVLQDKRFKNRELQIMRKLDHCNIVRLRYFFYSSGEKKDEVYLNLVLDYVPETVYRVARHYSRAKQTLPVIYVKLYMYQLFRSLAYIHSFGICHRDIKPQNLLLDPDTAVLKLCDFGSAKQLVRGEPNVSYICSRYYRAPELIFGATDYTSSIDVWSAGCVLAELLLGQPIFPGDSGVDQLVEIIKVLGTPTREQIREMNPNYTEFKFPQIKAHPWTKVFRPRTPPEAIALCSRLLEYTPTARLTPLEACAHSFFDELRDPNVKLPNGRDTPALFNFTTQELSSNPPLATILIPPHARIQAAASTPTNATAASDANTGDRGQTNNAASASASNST

Row | residual activity [1] [%] | residual activity [2] [%] | residual activity [3] [%] | residual activity [4] [%] | residual activity [5] [%] | residual activity [6] [%] | residual activity [7] [%] | residual activity [8] [%] | residual activity [9] [%] | SMILES
1 | 73 | 82 | 79 | 98 | 92 | 76 | 95 | 118 | 97 | COc1cc2c(Oc3ccc(-c4nc5ccccc5s4)cc3)ncnc2cc1OCCCN1CCCC1
2 | 16 | 69 | 113 | 86 | 94 | 96 | 130 | 166 | 98 | COc1cc2c(Oc3ccc(-c4nc5ccccc5s4)cc3F)ncnc2cc1OCCCN1CCN(C)CC1
3 | 79 | 114 | 112 | 96 | 93 | 101 | 112 | 88 | 99 | COc1cc2c(Oc3ccc(-c4nc5ccccc5s4)cc3)ncnc2cc1OCCCN1CCN(C)CC1
